What follows are compounds tested against T1, Amine oxidase [copper-containing] 3 (Homo sapiens, UniProt Q16853) (assay: SSAO Activity Assay).
T1 construct: gene AOC3
Description: Amine oxidase activity of recombinant hSSAO, hMAO-A, and hMAO-B isoforms are measured using the MAO-Glo assay kit (Promega, V1402). Ten nL test compounds (with DMSO as vehicle, 0.1% v/v for hSSAO, hMAO-A and hMAO-B) were added into assay plates by Echo, and pre-incubated with 5 μL of enzyme for 30 mins at room temperature before the addition of 5 μL of luminogenic substrate. The substrate concentration is 40 μM for human recombinant SSAO, 40 μM for human recombinant MAO-A, and 4 μM for human recombinant MAO-B. The hSSAO and hMAO-A assays were conducted in the MAO-A reaction buffer in the kit, and the MAO-B assay was conducted in the MAO-B reaction buffer. Oxidation of the substrate was conducted for 1 hr, before the addition of detecting reagent according the manufacture's protocol. The IC50 value of the tested compounds was calculated by fitting the dose response curve using a 4-parameter non-linear regression routine.

T1 sequence (Q16853 whole entry, looked up): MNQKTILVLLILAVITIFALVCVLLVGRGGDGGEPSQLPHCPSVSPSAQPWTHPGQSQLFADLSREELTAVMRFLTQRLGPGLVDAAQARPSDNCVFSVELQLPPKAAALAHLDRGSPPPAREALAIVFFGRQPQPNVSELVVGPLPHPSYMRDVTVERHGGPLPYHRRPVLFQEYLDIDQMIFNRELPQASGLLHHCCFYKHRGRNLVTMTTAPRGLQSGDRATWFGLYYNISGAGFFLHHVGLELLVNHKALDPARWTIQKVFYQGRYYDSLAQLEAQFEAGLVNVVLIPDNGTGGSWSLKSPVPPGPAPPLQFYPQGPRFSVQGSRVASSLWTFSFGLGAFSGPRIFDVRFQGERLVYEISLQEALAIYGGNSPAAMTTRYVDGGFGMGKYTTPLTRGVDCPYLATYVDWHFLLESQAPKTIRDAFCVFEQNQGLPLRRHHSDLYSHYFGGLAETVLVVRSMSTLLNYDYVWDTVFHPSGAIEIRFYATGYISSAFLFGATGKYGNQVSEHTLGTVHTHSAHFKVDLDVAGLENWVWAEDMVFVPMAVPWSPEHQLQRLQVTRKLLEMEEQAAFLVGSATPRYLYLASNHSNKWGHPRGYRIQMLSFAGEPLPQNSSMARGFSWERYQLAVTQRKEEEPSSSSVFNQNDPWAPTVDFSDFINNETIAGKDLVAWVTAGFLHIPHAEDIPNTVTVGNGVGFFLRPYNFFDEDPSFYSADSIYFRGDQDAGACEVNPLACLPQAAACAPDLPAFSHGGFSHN

IC50	SMILES
< 0.02 µM	NC/C(=C\F)COc1ccc(S(=O)(=O)CC2CCOCC2)cc1 [US11472769, Compound 1]
< 0.02 µM	CC1(CS(=O)(=O)c2ccc(OC/C(=C/F)CN)cc2)CCOCC1 [US11472769, Compound 5]
< 0.02 µM	CC1(CS(=O)(=O)c2ccc(OC/C(=C/F)CN)cc2F)CCOCC1 [US11472769, Compound 7]
< 0.02 µM	NC/C(=C\F)COc1ccc(S(=O)(=O)CC2CCOCC2)cc1F [US11472769, Compound 9]
in the range around 0.06 µM	NC/C(=C\F)COc1ccc(S(=O)(=O)C[C@H]2CC[C@H](O)CC2)cc1 [US11472769, Compound 14]
< 0.02 µM	NC/C(=C\F)COc1ccc(S(=O)(=O)C[C@H]2CC[C@@H](O)CC2)cc1 [US11472769, Compound 15]
< 0.02 µM	NC/C(=C\F)COc1ccc(S(=O)(=O)CC23CCC(C4(O)CC4)(CC2)CC3)cc1 [US11472769, Compound 18]
< 0.02 µM	CO[C@H]1CC[C@H](CS(=O)(=O)c2ccc(OC/C(=C/F)CN)cc2)CC1 [US11472769, Compound 19]
< 0.02 µM	CO[C@H]1CC[C@@H](CS(=O)(=O)c2ccc(OC/C(=C/F)CN)cc2)CC1 [US11472769, Compound 20]
in the range around 0.06 µM	NC/C(=C\F)COc1ccc(S(=O)(=O)C[C@@H]2CCOC2)cc1 [US11472769, Compound 21]
in the range around 0.06 µM	NC/C(=C\F)COc1ccc(S(=O)(=O)C[C@H]2CCOC2)cc1 [US11472769, Compound 22]
in the range around 0.06 µM	NC/C(=C\F)COc1ccc(S(=O)(=O)C[C@@H]2CCCO2)cc1 [US11472769, Compound 23]
< 0.02 µM	NC/C(=C\F)COc1ccc(S(=O)(=O)C[C@H]2CCCO2)cc1 [US11472769, Compound 24]
< 0.02 µM	COCS(=O)(=O)c1ccc(OC/C(=C/F)CN)cc1 [US11472769, Compound 28]
< 0.02 µM	NC/C(=C\F)COc1ccc(S(=O)(=O)COCC2CCOCC2)cc1 [US11472769, Compound 30]
< 0.02 µM	NC/C(=C\F)COc1ccc(S(=O)(=O)CC2CCN(C(=O)c3ccc(F)cc3)CC2)cc1 [US11472769, Compound 39]
in the range around 0.06 µM	NC/C(=C\F)COc1ccc(S(=O)(=O)Cc2ccc(C(=O)N3CCCC3)cc2)cc1 [US11472769, Compound 46]
< 0.02 µM	NC/C(=C\F)COc1ccc(S(=O)(=O)CC23CCC(C(=O)NC4CCC4)(CC2)CC3)cc1 [US11472769, Compound 64]
< 0.02 µM	NC/C(=C\F)COc1ccc(S(=O)(=O)CC23CCC(NC(=O)C4CC4)(CC2)CC3)cc1 [US11472769, Compound 76]

IC50	SMILES
< 0.02 µM	NC/C(=C\F)COc1ccc(S(=O)(=O)CC23CCC(NC(=O)CC(F)(F)F)(CC2)CC3)cc1 [US11472769, Compound 79]
< 0.02 µM	NC/C(=C\F)COc1ccc(S(=O)(=O)CC23CCC(N4CCCS4(=O)=O)(CC2)CC3)cc1 [US11472769, Compound 82]
< 0.02 µM	CC1CCN(C23CCC(CS(=O)(=O)c4ccc(OC/C(=C/F)CN)cc4)(CC2)CC3)C1=O (configuration not stated) [US11472769, Compound 83]
< 0.02 µM	N#CC12CCC(CS(=O)(=O)c3ccc(OC/C(=C/F)CN)cc3)(CC1)CC2 [US11472769, Compound 87]
< 0.02 µM	NC/C(=C\F)COc1ccc(S(=O)(=O)C[C@H]2CC[C@H](NC(=O)C3CC3)CC2)cc1 [US11472769, Compound 88]
> 0.5 µM	C[C@H](CN1CCCC1=O)CS(=O)(=O)c1ccc(OC/C(=C/F)CN)cc1 [US11472769, Compound 93]
in the range around 0.06 µM	C[C@@H](CN1CCCC1=O)CS(=O)(=O)c1ccc(OC/C(=C/F)CN)cc1 [US11472769, Compound 94]
< 0.02 µM	CC(C)C(=O)N(C)CC(C)(C)CS(=O)(=O)c1ccc(OC/C(=C/F)CN)cc1 [US11472769, Compound 96]
in the range around 0.06 µM	NC/C(=C\F)COc1ccc(S(=O)(=O)CC2CCCN(C(=O)C3CCCC3)C2)cc1 (configuration not stated) [US11472769, Compound 100]
< 0.02 µM	CC(C)n1nc(CS(=O)(=O)c2ccc(OC/C(=C/F)CN)cc2)ccc1=O [US11472769, Compound 102]
in the range around 0.06 µM	C[C@H](CN1CCCCC1=O)CS(=O)(=O)c1ccc(OC/C(=C/F)CN)cc1 [US11472769, Compound 104]
in the range around 0.06 µM	C[C@@H](CN1CCCCC1=O)CS(=O)(=O)c1ccc(OC/C(=C/F)CN)cc1 [US11472769, Compound 105]
in the range around 0.06 µM	C[C@H](CN1CCC2(CCCC2)C1=O)CS(=O)(=O)c1ccc(OC/C(=C/F)CN)cc1 [US11472769, Compound 109]
in the range around 0.06 µM	C[C@@H](CN1CCC2(CCCC2)C1=O)CS(=O)(=O)c1ccc(OC/C(=C/F)CN)cc1 [US11472769, Compound 110]
in the range around 0.06 µM	C[C@H](CN1CCOCC1)CS(=O)(=O)c1ccc(OC/C(=C/F)CN)cc1 [US11472769, Compound 112]
< 0.02 µM	C[C@@H](CN1CCOCC1)CS(=O)(=O)c1ccc(OC/C(=C/F)CN)cc1 [US11472769, Compound 113]
< 0.02 µM	NC/C(=C/F)COc1ccc(S(=O)(=O)CC23CCC(NC(=O)C4CC4)(CC2)CC3)cc1 [US11472769, Compound 139]
in the range around 0.06 µM	NC/C(=C\F)COc1ccc(S(=O)(=O)CC23CCC(C(=O)O)(CC2)CC3)cc1 [US11472769, Compound 146]

Reference: BindingDB's records for patent US11472769 (Eccogene (Shanghai) Co., Ltd., 2022)
